Assay results as given in patent US5633277A, “Sulfonamide aminomethylene derivatives as immunosuppressants” (Miles Inc., priority 1995, dated 1997).
Several values for one entry are separate records, joined by “and”; a condition that tells them apart may be missing. Equal values may be shown once.

What was measured:
[1] = molecular target: FKBP (Homo sapiens, UniProt P62942); test: PPIase Inhibition Assay; format: biochemical
Description: 1) Inhibition of PPlase Activity
This assay follows in principle the procedure described in Kofron et al., 1991, Biochemistry 30:6127. The three main reagents used are PPIase, a substrate for PPIase, and a selected inhibitor compound of the present invention. The basic principle behind this assay is the conversion of the cis isomer of the substrate to the trans form, which conversion is catalyzed by PPIase. Essentially, inhibition of this PPIase activity is measured for the selected compounds. A peptide chymotrypsin substrate containing a proline in the P2 position is only cleaved by chymotrypsin when the Phe-Pro bond is in the trans isomeric configuration. In the presence of excess chymotrypsin, all of the trans peptide isomers are cleaved within approximately five seconds, leaving only cis forms.
The cis peptide will spontaneously convert to the trans isomer at a slow rate. The cis to trans conversion is catalyzed by isomerases at a much faster rate than this spontaneous conversion. Proteins with PPIase activity are examples of such isomerases. After isomerization, the peptide is cleaved by chymotrypsin releasing p-nitroaniline which can be monitored at 390 nm. The rate of release is then calculated using a first order rate plus offset equation utilizing the ENZFITTER program (Leatherbarrow, BIOSOFT, Cambridge, United Kingdom).
In a plastic cuvette are added 950 ul of ice cold assay buffer (25 mM HEPES, pH 7.8, 100 mM NaCl), 10 uL of FKBP (2.5 uM in 10 mM Tris-Cl pH 7.5,100 mM NACl, 1 mM dithiothreitol), 25 ul of chymotrypsin (50 mg/ml in 1 mM HCl) and 10 ul of the test compound at various concentrations in dimethyl sulphoxide. The reaction is initiated by addition of 5 ul of substrate (Succinyl-Ala-Phe-Pro-Phe-para-nitroanilide, 5 mg/ml in 235 mM LiCl in trifluoroethanol).
The absorbance at 390 nm versus time is monitored for 90 sec using a Beckman DU70 spectrophotometer. The absorbance versus time data files are transferred to an IBM XT computer and the rate constants determined using the commercial Enzfitter program. For each set of data, the uncatalyzed rate of conversion is measured and the uninhibited enzymatic rate determined. The data are expressed as % Inhibition and are calculated as follows: [formula] where kobs is the rate in the presence of a selected test compound, kuncat is the rate in the absence of enzyme, and kuninh is the rate in the presence of enzyme and absence of inhibitor. Data are plotted as percent inhibition versus concentration of inhibitor. The values of the concentration of inhibitor required for 50% inhibition of enzyme activity (IC50) were determined by nonlinear least squares regression analysis.

[2] = tested on: NF-AT; test: NF-AT Inhibition Assay (NF-AT directed β-galactosidase expression in stimulated FGL-5 cells); format: cell-based; details: phorbol ester and ionomycin stimulated, 16-18 hours
Description: Stimulation of T-cells leads to the appearance of several transcription factors, including one designated "NF-AT". These factors are involved in regulation of gene expression required for immunologic activation. Some of these transcription factors appear to have functions in a wide variety of cell types. By contrast, NF-AT is found primarily in T-cells and its role is restricted to early gene activation.
Inhibition of NF-AT activity is measured using FGL-5 cells. FGL-5 is a cloned line of stably transfected Jurkat T-cells that contain a construct in which three tandem copies of the NF-AT DNA binding site direct transcription of the lacZ gene, encoding β-galactosidase (Fiering et al., 1990, Genes & Development 4:1823). When these cells are stimulated with phorbol esters which activate protein kinase C and calcium ionophore to raise the intracellular calcium concentration, transcriptionally active NF-AT is produced. In T-cells, this normally leads to the expression of IL-2, T-cell growth factor. However, in FGL-5 cells NF-AT activation leads to the production of β-galactosidase which can be detected using an appropriate substrate.
NF-AT Inhibition Assay Directed β-Galactosidase Expression
This assay was performed essentially as described (Bierer et al., 1990, Proc. Natl. Acad. Sci. 87:9231). FGL-5 cells were maintained in medium consisting of RPMI-1640 with 10% FBS, 2 mM L-glutamine, 1% Penicillin- Streptomycin and 15 mM HEPES buffer. The assays were done with exponentially growing cells whose density was not greater than 0.5 million cells/ml. The cells were resuspended to 3 million cells/ml in medium and 0. 1 mi was added to wells of a 96-well plate.
The compounds of the present invention were dissolved in either ethanol or dimethylsulfoxide at 10 mM and 0.05 ml/well of various dilutions in medium were added to cells in duplicate wells. Treatment controls consisted of duplicate wells to which 0.05 ml/well of either medium, ethanol or dimethylsulfoxide was added. The ethanol and dimethyl sulfoxide were at the same concentration as was used for the compounds. Cells were incubated with compounds at room temperature for 10-15 minutes. Phorbol dibutyrate (Sigma) and Ionomycin (Calbiochem) were dissolved at 50 μg g/mi and 2 mM, respectively and stored at -70° C.
FGL-5 cells were stimulated by diluting these reagents with medium to 200 ng/ml and 8 μM, respectively and adding of 0.05 ml/well. For unstimulated cell controls, 0.05 mi/well of medium was added to duplicate wells. The plates were incubated overnight (16-18 hours) at 37° C. in a humidified atmosphere of 5% CO2 and air. β-galactosidase activity was measured as the fluorescence generated by the cleavage of 4-methyl umbelliferyl-β-D-galactoside (Sigma) at the β-galactoside bond. After overnight incubation, the cells were centrifuged at 500×g for 3 minutes in the 96-well plates and washed 3 times with PBS. The cells were then resuspended in 0. 18 mi/well of reaction medium containing 100 mM sodium phosphate buffer, pH 7.0, 10 mM potassium chloride, 1 mM magnesium sulfate, 0.1% Triton X-100 (Pierce, Rockford, Ill.), and 0.5 mM 4-methylumbelliferyl-β-D- galactoside.
The fluorescence at 460 nm using 355 nm excitation was measured at intervals over 1-2 hours (during which fluorescence increased linearly with time) with a LS50 Luminescence Spectrometer (Perkin Elmer).
The percent inhibition by each concentration of the compounds was calculated as: [formula]
The values of the concentration of compounds required for 50% inhibition (IC50) were determined by linear regression analysis of the percent inhibition at various compound concentrations.

Chain of FKBP (P62942 whole entry): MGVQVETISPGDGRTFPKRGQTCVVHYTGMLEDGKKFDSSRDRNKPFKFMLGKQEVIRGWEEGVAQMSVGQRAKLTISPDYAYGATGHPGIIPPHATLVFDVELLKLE

Structure (SMILES)	IC50 [1] [µM]	IC50 [2]
CC(C)C[C@@H](CN1CCC[C@H]1C(=O)NCCCCc1ccccc1)NS(=O)(=O)CC12CCC(CC1=O)C2(C)C (single isomer, unassigned) [Example 7]	> 5	> 15 µM
CC(C)C[C@@H](CN1CCC[C@H]1C(=O)NCCCCc1ccccc1)NS(C)(=O)=O [Example 1, 1-[2-(S)-Methanesulfonylamino-4-methylpentyl]-L-proline 4-Phenylbutylamide]	3.5	≤ 11 µM and 9 µM
Cc1ccc(S(=O)(=O)N[C@@H](CC(C)C)CN2CCC[C@H]2C(=O)NCCCCc2ccccc2)cc1 [Example 2, 1-[2-(S)-(Toluene-4-sulfonylamino)-4-methylpentyl]-L-proline 4-Phenylbutylamide]	> 5	27 µM
CC(C)C[C@@H](CN1CCC[C@H]1C(=O)NCCCCc1ccccc1)NS(=O)(=O)c1cccc2cccnc12 [Example 3, 1-[2-(S)-(Quinoline-8-sulfonylamino)-4-methylpentyl]-L-proline 4-Phenylbutylamide]	> 5	≤ 11 µM and 11 µM
CC(=O)Nc1nc(C)c(S(=O)(=O)N[C@@H](CC(C)C)CN2CCC[C@H]2C(=O)NCCCCc2ccccc2)s1 [Example 4, 1-[2-(S)-(2-Acetylamino-4-methyl-S-thiazolesulfonylamino)-4-methylpentyl]-L -proline 4-Phenylbutylamide]	> 5	24 µM
CC(C)C[C@@H](CN1CCC[C@H]1C(=O)NCCCCc1ccccc1)NS(=O)(=O)c1cccs1 [Example 5, 1-[2-(S)-(Thiophene-2-sulfonylamino)-4-methylpentyl]-L-proline 4-Phenylbutylamide]	> 5	24 µM
CC(C)C[C@@H](CN1CCC[C@H]1C(=O)NCCCCc1ccccc1)NS(=O)(=O)/C=C/c1ccccc1 [Example 6, 1-[2-(S)-(2-phenyl-ethenesulfonylamino)-4-methylpentyl]-L-proline 4-Phenylbutylamtde]	> 5	> 15 µM
CC(C)C[C@@H](CN1CCC[C@H]1C(=O)NCCCCc1ccccc1)NS(=O)(=O)c1ccc(-c2ccon2)s1 [Example 8, 1-[2-(S)-(5 - [Isoxazol-25-yl]-thiophene-2-sulfonylamino)-4-methylpentyl]-L-proline 4-Phenylbutylamide]	> 5	> 15 µM
CC(C)C[C@@H](CN1CCC[C@H]1C(=O)NCCCCc1ccccc1)NS(=O)(=O)c1c(C(C)C)cc(C(C)C)cc1C(C)C [Example 10, 1-[2-(S)-(2',4',6'-Triisopropylbenzenesulfonylamino)-4-methylpentyl]-L-proline 4-Phenylbutylamide]	> 5	> 15 µM
CC[C@H](C)[C@H](NC(=O)[C@@H]1CCCCN1C[C@@H](NS(C)(=O)=O)[C@@H](C)CC)C(=O)NCc1ccccc1 [Example 11]	> 5	> 15 µM
